The values below come from patent US9556190B2, “Piperidinyloxy lactone orexin receptor antagonists” (MERCK SHARP & DOHME CORP., priority 2013, dated 2017).

pIC50: −log10 of the molar value.

One assay concerns the target human orexin-2 receptor (Homo sapiens (Human), UniProt O43614). The experiment in a line: FLIPR Ca2+ Flux Assay, CHO cells expressing orexin-2 receptor. It counts as cell-based. The note with it: 70 pM Ala-6,12 orexin-A agonist, read-out: hOX2R FLIPR IC50. The method, then:
The utility of the compounds in accordance with the present invention as orexin receptor OX1R and/or OX2R antagonists may be readily determined without undue experimentation by methodology well known in the art, including the “FLIPR Ca^2+ Flux Assay” (Okumura et al., Biochem. Biophys. Res. Comm. 280:976-981, 2001). In a typical experiment the OX1 and OX2 receptor antagonistic activity of the compounds of the present invention was determined in accordance with the following experimental method. For intracellular calcium measurements, Chinese hamster ovary (CHO) cells expressing the rat orexin-1 receptor or the human orexin-2 receptor, are grown in Iscove's modified DMEM containing 2 mM L-glutamine, […], 1% hypoxanthine-thymidine supplement, 100 U/ml penicillin, 100 μg/ml streptomycin and 10% heat-inactivated fetal calf serum (FCS). The cells are seeded at 20,000 cells/well into Becton-Dickinson black 384-well clear bottom sterile plates coated with poly-D-lysine. All reagents were from GIBCO-Invitrogen Corp. The seeded plates are incubated overnight at 37° C. and 5% CO2. Ala-6,12 human orexin-A as the agonist is prepared as a 1 mM stock solution in 1% bovine serum albumin (BSA) and diluted in assay buffer (HBSS containing 20 mM HEPES, 0.1% BSA and 2.5 mM probenecid, pH7.4) for use in the assay at a final concentration of 70 pM. Test compounds are prepared as 10 mM stock solution in DMSO, then diluted in 384-well plates, first in DMSO, then assay buffer. On the day of the assay, cells are washed 3 times with 100 μl assay buffer and then incubated for 60 min (37° C., 5% CO2) in 60 μl assay buffer containing 1 μM Fluo-4AM ester, 0.02% pluronic acid, and 1% BSA. The dye loading solution is then aspirated and cells are washed 3 times with 100 μl assay buffer. 30 μl of that same buffer is left in each well. Within the Fluorescent Imaging Plate Reader (FLIPR, Molecular Devices), test compounds are added to the plate in a volume of 25 μl, incubated for 5 min and finally 25 μl of agonist is added. Fluorescence is measured for each well at 1 second intervals for 5 minutes and the height of each fluorescence peak is compared to the height of the fluorescence peak induced by 70 pM Ala-6,12 orexin-A with buffer in place of antagonist. For each antagonist, IC50 value (the concentration of compound needed to inhibit 50% of the agonist response) is determined. Alternatively, compound potency can be assessed by a radioligand binding assay (described in Bergman et. al. Bioorg. Med. Chem. Lett. 2008, 18, 1425-1430) in which the inhibition constant (Ki) is determined in membranes prepared from CHO cells expressing either the OX1 or OX2 receptor. The intrinsic orexin receptor antagonist activity of a compound which may be used in the present invention may be determined by these assays.
On the technique in general: Calcium assays in cells follow changes in intracellular calcium, usually with a dye or a luminescent sensor.

The target in another assay is hOX1R (Homo sapiens, UniProt O43613). In words: FLIPR Ca2+ Flux Assay, CHO cells expressing orexin-1 receptor. The note with it: 70 pM Ala-6,12 orexin-A agonist. It counts as cell-based.

human orexin-2 receptor, sequence (O43614 whole entry): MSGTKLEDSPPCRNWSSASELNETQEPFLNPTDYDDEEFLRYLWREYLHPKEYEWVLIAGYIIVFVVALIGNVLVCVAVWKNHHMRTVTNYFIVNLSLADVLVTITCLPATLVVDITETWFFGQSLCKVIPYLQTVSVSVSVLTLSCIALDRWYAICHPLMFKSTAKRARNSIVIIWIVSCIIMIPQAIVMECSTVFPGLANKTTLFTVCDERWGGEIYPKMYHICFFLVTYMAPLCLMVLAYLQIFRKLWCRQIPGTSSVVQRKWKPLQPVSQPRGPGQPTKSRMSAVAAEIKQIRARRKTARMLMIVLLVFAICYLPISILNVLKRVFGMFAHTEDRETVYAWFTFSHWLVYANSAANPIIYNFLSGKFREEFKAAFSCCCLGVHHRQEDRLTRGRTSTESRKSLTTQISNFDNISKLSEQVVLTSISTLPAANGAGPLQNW

A word on the pIC50: it is −log10 of the IC50, conventionally taken in molar units. As to `C[C@@H]1CC[C@@H](Oc2nccc3c2C(=O)OC3(C)C)CN1C(=O)c1ccccc1-n1nccn1` [Example 1, 1,1-Dimethyl-4-{[(3R,6R)-6-methyl-1-{[2-(2H-1,2,3-triazol-2-yl)phenyl]carbonyl}piperidin-3-yl]oxy}furo[3,4-c]pyridin-3(1H)-one], the pIC50 on human orexin-2 receptor was 7.70; on hOX1R, 5.08.
The matching figures for `C[C@@H]1CC[C@@H](Nc2nccc3c2C(=O)OC3(C)C)CN1C(=O)c1ccccc1-c1ncccn1` [Example 42, 1,1-dimethyl-4-({(3R,6R)-6-methyl-1-[(2-pyrimidin-2-ylphenyl)carbonyl]-piperidin-3-yl}amino)furo[3,4-c]pyridin-3(1H)-one]: 7.59 and 5.54.
For the compound `Cc1nc(-c2c(F)cccc2C(=O)N2C[C@H](Oc3nccc4c3C(=O)OC4(C)C)CC[C@H]2C)no1` [Example 16, 4-{[(3R,6R)-1-{[3-fluoro-2-(5-methyl-1,2,4-oxadiazol-3-yl)phenyl]carbonyl}-6-methylpiperidin-3-yl]oxy}-1,1-dimethylfuro[3,4-c]pyridin-3(1H)-one], the pIC50 at human orexin-2 receptor is 7.05; on hOX1R it was 5.00.
The matching figures for `C[C@@H]1CC[C@@H](Oc2nccc3c2COC3=O)CN1C(=O)c1ccc(F)cc1-n1nccn1` [Example 32, 4-{[(3R,6R)-1-{[4-fluoro-2-(2H-1,2,3-triazol-2-yl)phenyl]-carbonyl}-6-methyl-piperidin-3-yl]oxy}furo[3,4-c]pyridin-1(3H)-one]: 7.82 and 5.08.
The matching figures for `C[C@@H]1CC[C@@H](Oc2nccc3c2COC3=O)CN1C(=O)c1ccsc1-n1nccn1` [Example 29, 4-{[(3R,6R)-6-methyl-1-{[2-(2H-1,2,3-triazol-2-yl)thiophen-3-yl]carbonyl}piperidin-3-yl]oxy}furo[3,4-c]pyridin-1(3H)-one]: 7.80 and 5.50.
With `C[C@@H]1OC(=O)c2c1ccnc2N[C@@H]1CC[C@@H](C)N(C(=O)c2ccccc2-n2nccn2)C1` [Example 46, (1S)-1-methyl-4-{[(3R,6R)-6-methyl-1-{[2-(2H-1,2,3-triazol-2-yl)phenyl]carbonyl}piperidin-3-yl]amino}furo[3,4-c]pyridin-3(1H)-one], the negative logarithm of the IC50 (pIC50) on human orexin-2 receptor was 7.55; at hOX1R, at most 5.00.
The matching figures for `C[C@@H]1CC[C@@H](Oc2nccc3c2C(=O)OC3(C)C)CN1C(=O)c1cccc(F)c1-c1ncccn1` [Example 27, 4-({(3R,6R)-1-[(3-fluoro-2-pyrimidin-2-ylphenyl)carbonyl]-6-methylpiperidin-3-yl}oxy)-1,1-dimethylfuro[3,4-c]pyridin-3(1H)-one]: 6.86 and 5.00.
For `C[C@@H]1CC[C@@H](Nc2nccc3c2C(=O)OC3(C)C)CN1C(=O)c1ccsc1-n1nccn1` [Example 43, 1,1-dimethyl-4-{[(3R,6R)-6-methyl-1-{[2-(2H-1,2,3-triazol-2-yl)thiophen-3-yl]-carbonyl}piperidin-3-yl]amino}-furo[3,4-c]pyridin-3(1H)-one], the pIC50 on human orexin-2 receptor is 7.72; at hOX1R, 5.00.
The matching figures for `C[C@@H]1CC[C@@H](Oc2nccc3c2C(=O)OC3(C)C)CN1C(=O)c1ccsc1-c1ncccn1` [Example 25, 1,1-dimethyl-4-(((3R,6R)-6-methyl-1-(2-(pyrimidin-2-yl)thiophene-3-carbonyl)piperidin-3-yl)oxy)furo[3,4-c]pyridin-3(1H)-one]: 7.36 and 5.04.
The matching figures for `Cc1noc(-c2cccc(F)c2C(=O)N2C[C@H](Oc3nccc4c3C(=O)OC4(C)C)CC[C@H]2C)n1` [Example 17, 4-{[(3R,6R)-1-{[2-fluoro-6-(3-methyl-1,2,4-oxadiazol-5-yl)phenyl]carbonyl}-6-methylpiperidin-3-yl]oxy}-1,1-dimethylfuro[3,4-c]pyridin-3(1H)-one]: 6.99 and 5.00.
`Cc1ccc(-n2nccn2)c(C(=O)N2C[C@H](Oc3nccc4c3C(=O)OC4(C)C)CC[C@H]2C)c1` [Example 5, 1,1-dimethyl-4-{[(3R,6R)-6-methyl-1-{[5-methyl-2-(2H-1,2,3-triazol-2-yl)phenyl]carbonyl}piperidin-3-yl]oxy}furo[3,4-c]pyridin-3(1H)-one]: the figures for the pIC50 at human orexin-2 receptor and at hOX1R were 7.27 and 5.60, respectively.
The matching figures for `C[C@@H]1CC[C@@H](Oc2nccc3c2C(=O)OC3(C)C)CN1C(=O)c1ccccc1-n1ncnn1` [Example 21, 1,1-Dimethyl-4-{[(3R,6R)-6-methyl-1-{[2-(2H-tetrazol-2-yl)phenyl]carbonyl}piperidin-3-yl]oxy}furo[3,4-c]pyridin-3(1H)-one]: 6.96 and 5.00.
Take `C[C@@H]1CC[C@@H](Oc2nccc3c2COC3=O)CN1C(=O)c1ccccc1-n1nccn1` [Example 28, 4-{[(3R,6R)-6-Methyl-1-{[2-(2H-1,2,3-triazol-2-yl)phenyl]carbonyl}piperidin-3-yl]oxy}furo[3,4-c]pyridin-1(3H)-one]: the pIC50 was 7.80 at human orexin-2 receptor and 5.33 at hOX1R.
The matching figures for `Cc1noc(-c2cc(F)ccc2C(=O)N2C[C@H](Oc3nccc4c3C(=O)OC4(C)C)CC[C@H]2C)n1` [Example 19, 4-{[(3R,6R)-1-{[4-fluoro-2-(3-methyl-1,2,4-oxadiazol-5-yl)phenyl]carbonyl}-6-methylpiperidin-3-yl]oxy}-1,1-dimethylfuro[3,4-c]pyridin-3(1H)-one]: 6.42 and 5.00.
As to `Cc1nc(-c2ccc(F)cc2C(=O)N2C[C@H](Oc3nccc4c3C(=O)OC4(C)C)CC[C@H]2C)no1` [Example 14, 4-{[(3R,6R)-1-{[5-fluoro-2-(5-methyl-1,2,4-oxadiazol-3-yl)phenyl]carbonyl}-6-methylpiperidin-3-yl]oxy}-1,1-dimethylfuro[3,4-c]pyridin-3(1H)-one], the pIC50 on human orexin-2 receptor is 7.12; at hOX1R, 5.00.
The matching figures for `COc1ccc(C(=O)N2C[C@H](Oc3nccc4c3C(=O)OC4(C)C)CC[C@H]2C)c(-n2nccn2)n1` [Example 12, 4-{[(3R,6R)-1-{[6-methoxy-2-(2H-1,2,3-triazol-2-yl)pyridin-3-yl]carbonyl}-6-methylpiperidin-3-yl]oxy}-1,1-dimethylfuro[3,4-c]pyridin-3(1H)-one]: 6.71 and 5.00.
In the case of `C[C@@H]1CC[C@@H](Oc2nccc3c2COC3=O)CN1C(=O)c1ccccc1CS(C)(=O)=O` [Example 33, 4-{[(3R,6R)-6-methyl-1-({2-[(methyl-sulfonyl)methyl]-phenyl}carbonyl)-piperidin-3-yl]oxy}furo[3,4-c]pyridin-1(3H)-one], the pIC50 is 7.70 at human orexin-2 receptor and at most 5.00 on hOX1R.
The matching figures for `C[C@@H]1CC[C@@H](Oc2nccc3c2C(=O)OC3(C)C)CN1C(=O)c1c(F)cccc1-c1ncccn1` [Example 26, 4-({(3R,6R)-1-[(2-fluoro-6-pyrimidin-2-ylphenyl)carbonyl]-6-methylpiperidin-3-yl}oxy)-1,1-dimethylfuro[3,4-c]pyridin-3(1H)-one]: 6.96 and 5.00.
The matching figures for `C[C@@H]1CC[C@@H](Nc2nccc3c2C(=O)OC3(C)C)CN1C(=O)c1ccccc1-n1ncnn1` [Example 41, 1,1-Dimethyl-4-{[(3R,6R)-6-methyl-1-{[2-(2H-tetrazol-2-yl)phenyl]carbonyl}piperidin-3-yl]amino}furo[3,4-c]pyridin-3(1H)-one]: 7.82 and 5.00.
In the case of `C[C@@H]1CC[C@@H](Oc2nccc3c2COC3=O)CN1C(=O)c1ccccc1C1(C#N)CC1` [Example 31, 1-[2-({(2R,5R)-2-methyl-5-[(1-oxo-1,3-dihydrofuro[3,4-c]pyridin-4-yl)oxy]-piperidin-1-yl}-carbonyl)-phenyl]cyclo-propane-carbonitrile], the values for the pIC50 at human orexin-2 receptor and on hOX1R were 7.92 and 5.75, respectively.
With `C[C@@H]1CC[C@@H](Nc2nccc3c2C(=O)OC3)CN1C(=O)c1ccccc1-n1nccn1` [Example 40, 4-{[(3R,6R)-6-Methyl-1-{[2-(2H-1,2,3-triazol-2-yl)phenyl]carbonyl}piperidin-3-yl]amino}furo[3,4-c]pyridin-3(1H)-one], the pIC50 on human orexin-2 receptor was 6.87; on hOX1R it was 5.00.
